Test results reported in PMC8413292, “Small-molecule polymerase inhibitor protects non-human primates from measles and reduces shedding” (Nature Communications, 2021).
Several values for one entry are separate records, joined by “and”; a condition that tells them apart may be missing. Equal entries are not always repeated.

How the values were obtained:
[1] = test system: MV/FrankfurtMain.DEU/17.11 (genotype D8); assay: Clinical signs (rash score) in MeV-infected squirrel monkeys; conditions: for animals that developed spots or mild rash in the face or inguinal region: 50 mg/kg b.i.d. 14 days
Experimental: All animal experiments were carried out in compliance with the regulations of German animal protection laws and authorized by the Regierungspräsidium Darmstadt, Germany (Dezernat V54 – Veterinärwesen und Verbraucherschutz, Hilpertstrasse 31, 64295 Darmstadt). Adult male and female squirrel monkeys (Saimiri sciureus) were obtained from BioPRIM, 31450 Baziege, or CNRS 0846 Primatologie, 13790 Rousset, France. Each experimental group was housed in a separate room, and animals of the same sex were caged together within the respective groups. For the single-dose pharmacokinetic experiment, animals were anesthetized, and the drug was given through a stomach tube at a concentration of 50 mg/kg bodyweight. Blood samples were collected after 15, 30, and 60 min, and 2, 3, 6, and 24 h. For efficacy assessment, groups of 6 animals were left untreated or treated with 50 mg/kg of ERDRP-0519 twice daily for two weeks, starting either 12 h before or 3 or 7 days after intranasal infection with 10^6 TCID50 of MV/FrankfurtMain.DEU/17.11. Clinical signs, rectal temperature, and weight were recorded daily, and throat swabs and blood samples were collected before infection and twice weekly thereafter. On day 21 post-infection, the animals were euthanized, necropsied, and samples were collected for histological analysis.

[2] = test system: MeV; conditions: depending on the MeV-strain; read-out: in vitro EC50; cited from earlier work
[3] = test system: MeV N gene RNA; assay: Quantitative RT-PCR of MeV N RNA in PBMCs; assay type: in vivo
Experimental: Organs (21 days post-infection) and PBMCs (twice a week) were frozen in RNAlater (Qiagen) at −80 °C until further processing. For the deceased animal, organs were frozen in RNAlater at the day of death. Lymph nodes were thawed on ice, transferred to TRIzol (ambion life technologies) and homogenized using a tissue homogenizer. Total RNA of lymph nodes and PBMCs was extracted following the TRIzol manufacturer’s protocol. RNA (1000 ng for lymph nodes; 110 ng for PBMCs) was then subjected to reverse transcription using random hexamer primers and Superscript III reverse transcriptase in accordance with the manufacturer’s protocols. Subsequent quantitative PCR (qPCR) was carried out using primer pairs specific for a fragment in the MeV N gene[23] or GAPDH gene(Supplementary Table 2) and the PowerUp SYBR Green Master Mix (Thermo Fisher Scientific) in an Applied Biosystems 7500 Real-Time PCR system. Samples were normalized for GAPDH. The comparative (ΔΔCt) Ct method was applied to determine relative amounts of N-encoding RNA present in samples from treated animals compared to those obtained from untreated control animals (lymph nodes) or compared to those obtained from untreated control animals on day 7 post-infection (peak PBMC virus titer).

Cn1nc(C(F)(F)F)cc1C(=O)Nc1ccc(S(=O)(=O)N2CCCC[C@H]2CCN2CCOCC2)cc1 [ERDRP-0519]
severe or generalized rash ([1]; all treated groups): none of the treated animals experienced severe or generalized rash | animals that developed spots or mild rash in the face or inguinal region ([1]; day 3 therapeutic group): Four of six animals | deaths during the study ([1]; day 3 therapeutic group, day 15 post-infection, authors conclude unrelated to drug or MeV): One animal in the day 3 therapeutic group developed mild diarrhea and deceased | animals that developed spots or mild rash in the face or inguinal region ([1]; day 7 therapeutic group): all animals | measles-typical clinical signs ([1]; prophylactic group, 50 mg/kg b.i.d. 14 days from 12 h prior to infection): remained free of measles-typical clinical signs | EC50 [2]: 70 to 300 nM | Supp. Figure 3a, relative MeV N RNA in PBMCs, group mean (Mean 2) ([3]; prophylactic, Day 0): -12.26 | Supp. Figure 3a, relative MeV N RNA in PBMCs, group mean (Mean 2) ([3]; prophylactic, Day 3): -12.06 | Supp. Figure 3a, relative MeV N RNA in PBMCs, group mean (Mean 2) ([3]; prophylactic, Day 7): -11.48 | Supp. Figure 3a, relative MeV N RNA in PBMCs, group mean (Mean 2) ([3]; prophylactic, Day 10): -12.34 | Supp. Figure 3a, relative MeV N RNA in PBMCs, group mean (Mean 2) ([3]; prophylactic, Day 14): -13.16 | Supp. Figure 3a, relative MeV N RNA in PBMCs, group mean (Mean 2) ([3]; prophylactic, Day 17): -11.47 | Supp. Figure 3a, relative MeV N RNA in PBMCs, group mean (Mean 2) ([3]; prophylactic, Day 21): -10.12 | Supplemental Figure 3a source data, relative MeV N RNA in PBMCs, individual animals ([3]; prophylactic, time (d) 0): -12.3202 and -6.433 and -10.4614 and -17.6101 and -12.9356 and -13.7878 | Supplemental Figure 3a source data, relative MeV N RNA in PBMCs, individual animals ([3]; prophylactic, time (d) 3): -12.847 and -12.9062 and -10.7172 and -12.2727 and -12.1274 and -11.494 | Supplemental Figure 3a source data, relative MeV N RNA in PBMCs, individual animals ([3]; prophylactic, time (d) 7): -12.6218 and -9.583 and -12.0312 and -12.5732 and -12.8193 and -9.245 | Supplemental Figure 3a source data, relative MeV N RNA in PBMCs, individual animals ([3]; prophylactic, time (d) 10): -9.991 and -12.9071 and -11.8528 and -13.7115 and -14.2547 and -11.2939 | Supplemental Figure 3a source data, relative MeV N RNA in PBMCs, individual animals ([3]; prophylactic, time (d) 14): -12.3346 and -10.7326 and -10.4158 and -12.9517 and -16.1088 and -16.4382 | Supplemental Figure 3a source data, relative MeV N RNA in PBMCs, individual animals ([3]; prophylactic, time (d) 17): -14.0262 and -7.645 and -8.833 and -10.0876 and -14.1769 and -14.0235 | Supplemental Figure 3a source data, relative MeV N RNA in PBMCs, individual animals ([3]; prophylactic, time (d) 21): -13.9134 and -10.311 and -12.0659 and -11.4656 and -0.8977 and -12.0848 | Supp. Figure 3a, relative MeV N RNA in PBMCs, group mean (Mean 2) ([3]; therapeutic (d3), Day 0): -13.2 | Supp. Figure 3a, relative MeV N RNA in PBMCs, group mean (Mean 2) ([3]; therapeutic (d3), Day 3): -12.07 | Supp. Figure 3a, relative MeV N RNA in PBMCs, group mean (Mean 2) ([3]; therapeutic (d3), Day 7): -9.205 | Supp. Figure 3a, relative MeV N RNA in PBMCs, group mean (Mean 2) ([3]; therapeutic (d3), Day 10): -9.289 | Supp. Figure 3a, relative MeV N RNA in PBMCs, group mean (Mean 2) ([3]; therapeutic (d3), Day 14): -11.53 | Supp. Figure 3a, relative MeV N RNA in PBMCs, group mean (Mean 2) ([3]; therapeutic (d3), Day 17): -11.67 | Supp. Figure 3a, relative MeV N RNA in PBMCs, group mean (Mean 2) ([3]; therapeutic (d3), Day 21): -13.06 | Supplemental Figure 3a source data, relative MeV N RNA in PBMCs, individual animals ([3]; therapeutic (d3), time (d) 0): -12.185 and -15.2199 and -11.755 and -14.0483 and -12.7958 | Supplemental Figure 3a source data, relative MeV N RNA in PBMCs, individual animals ([3]; therapeutic (d3), time (d) 3): -13.2368 and -9.809 and -12.089 and -11.8661 and -12.6935 and -12.7459 | Supplemental Figure 3a source data, relative MeV N RNA in PBMCs, individual animals ([3]; therapeutic (d3), time (d) 7): -6.7874 and -7.787 and -8.103 and -8.648 and -13.5153 and -10.39 | Supplemental Figure 3a source data, relative MeV N RNA in PBMCs, individual animals ([3]; therapeutic (d3), time (d) 10): -4.115 and -10.1748 and -9.33 and -8.711 and -14.231 and -9.172 | Supplemental Figure 3a source data, relative MeV N RNA in PBMCs, individual animals ([3]; therapeutic (d3), time (d) 14): -9.809 and -12.4589 and -12.5095 and -12.5754 and -8.538 and -13.3167 | Supplemental Figure 3a source data, relative MeV N RNA in PBMCs, individual animals ([3]; therapeutic (d3), time (d) 17): -10.29 and -10.5346 and -12.5229 and -11.5387 and -13.4468 | Supplemental Figure 3a source data, relative MeV N RNA in PBMCs, individual animals ([3]; therapeutic (d3), time (d) 21): -15.6913 and -17.4162 and -8.965 and -9.87 and -13.3809 | Supp. Figure 3a, relative MeV N RNA in PBMCs, group mean (Mean 2) ([3]; therapeutic (d7), Day 0): -11.48 | Supp. Figure 3a, relative MeV N RNA in PBMCs, group mean (Mean 2) ([3]; therapeutic (d7), Day 3): -11.42 | Supp. Figure 3a, relative MeV N RNA in PBMCs, group mean (Mean 2) ([3]; therapeutic (d7), Day 7): -3.189 | Supp. Figure 3a, relative MeV N RNA in PBMCs, group mean (Mean 2) ([3]; therapeutic (d7), Day 10): -4.318
